Assay results as given in US8163699B2, “Method for the treatment of valvular disease” (Montreal Heart Institute, priority 2006, dated 2012).
Several values for one entry are separate records, joined by “and”; a condition that tells them apart may be missing. Equal entries are not always repeated.

Experiments:
Assay type in all cases: in vivo, New-Zealand White rabbits
aortic valve lesions [1] = assay: Histomorphometry of aortic valves in rabbit model of aortic valve stenosis; conditions: treated group; post mortem after 2 weeks of treatment
Excerpt: An animal model adapted from that described by Drolet et al. (12) was used. Fifteen male New-Zealand White rabbits (2.7-3.0 kg, aged 12-13 weeks) were fed with a 0.5% cholesterol-enriched diet (Harlan, Indianapolis, Ind.) plus vitamin D2 (50000 UI per day; Sigma, Markham, Canada) in the drinking water until significant AVS, as defined by a decrease ≧10% of aortic valve area (AVA) or of the transvalvular velocities ratio (V1/V2), could be detected by echocardiography (12.9±2.4 weeks). The animals then returned to a standard diet (without vitamin D2) to mimic cholesterol lowering and were randomly assigned to receive either saline (control group, n=8) or the ApoA-1 mimetic peptide (treated group, n=7). Rabbits were given injections through the marginal ear vein of saline or of the ApoA-1 mimetic peptide (25 mg/kg) complexed with phospholipids (Compound A), 3 times per week for 2 weeks. Echocardiograms were performed serially (see Echocardiography Methods) every 3 to 4 days throughout the randomized treatment period. Two days after their last infusion, the animals underwent a final echocardiogram and were sacrificed, and the aortic valves were harvested for histological analyses. Blood samples were obtained through the ear artery at baseline, prior to treatment and before sacrifice. Total cholesterol, HDL cholesterol, triglycerides and calcium levels were measured with an automated filter photometer system (Dimension RxL Max, Dade Behring, Ill.). The ascending aorta and aortic valve were opened longitudinally and the 3 valvular cusps were separated. […] Stained or immunohistochemically labeled tissue sections obtained from the central third of each cusp were analyzed with a computer-based digitizing image system (Image Pro Plus, version 5.1) using a light microscope (BX41, Olympus) connected to a digital video camera (Qcolor3, Olympus). […] Lesion area (LA) and leaflet lesion length (LLL) were measured. […] Relationships between histomorphometry and echocardiographic variables were evaluated using Pearson correlation coefficient. […]

[2] = Serum lipids and calcemia in rabbit model of aortic valve stenosis; conditions: for HDL-cholesterol / total cholesterol levels: treated group
Experimental: (§1) The animals then returned to a standard diet (without vitamin D2) to mimic cholesterol lowering and were randomly assigned to receive either saline (control group, n=8) or the ApoA-1 mimetic peptide (treated group, n=7). Rabbits were given injections through the marginal ear vein of saline or of the ApoA-1 mimetic peptide (25 mg/kg) complexed with phospholipids (Compound A), 3 times per week for 2 weeks. Echocardiograms were performed serially (see Echocardiography Methods) every 3 to 4 days throughout the randomized treatment period. Two days after their last infusion, the animals underwent a final echocardiogram and were sacrificed, and the aortic valves were harvested for histological analyses. Blood samples were obtained through the ear artery at baseline, prior to treatment and before sacrifice. Total cholesterol, HDL cholesterol, triglycerides and calcium levels were measured with an automated filter photometer system (Dimension RxL Max, Dade Behring, Ill.).
Data are presented as mean±standard deviation. For the “pre-treatment” period, repeated measures analysis of variance (ANOVA) models were used to study the echocardiographic and serum measurements across time and between groups (treated vs. control groups). Models with time, group and group×time interaction as independent variables were used and comparisons between groups at a given time point were undertaken only in the presence of a significant group×time interaction. Otherwise, global conclusions were drawn based on the main group effects of the model. For the randomized treatment period, repeated measures analysis of covariance (ANCOVA) models were used to study the echocardiographic and serum measurements across time and between groups (treated vs. control groups), adjusted for the baseline value of the response variable. The group×time interaction was also included in the ANCOVA models and comparisons between groups at a given time point were undertaken only in the presence of a significant group×time interaction. Otherwise, global conclusions were drawn based on the main group effects of the model. Histological variables were compared between treated and control groups using Student t-test. Relationships between histomorphometry and echocardiographic variables were evaluated using Pearson correlation coefficient. All analyses were performed with SAS release 8.2 (SAS Institute Inc., Cary, N.C.) and conducted at the 0.05 significance level.

[3] = test system: aortic valve stenosis (AVS); assay: Echocardiography (aortic valve area, aortic valve thickness) in rabbit model of aortic valve stenosis; conditions: for Aortic valve area (AVA): 25 mg/kg i.v. 3 times per week; for Aortic valve thickness: treated rabbits
Excerpt: A complex animal model of aortic valve stenosis has been developed in rabbits.
An animal model adapted from that described by Drolet et al. (12) was used. Fifteen male New-Zealand White rabbits (2.7-3.0 kg, aged 12-13 weeks) were fed with a 0.5% cholesterol-enriched diet (Harlan, Indianapolis, Ind.) plus vitamin D2 (50000 UI per day; Sigma, Markham, Canada) in the drinking water until significant AVS, as defined by a decrease ≧10% of aortic valve area (AVA) or of the transvalvular velocities ratio (V1/V2), could be detected by echocardiography (12.9±2.4 weeks).
as §1
Transthoracic echocardiographic studies were performed at baseline, on a weekly basis starting at 8 weeks of hypercholesterolemic diet until significant AVS developed, and then after 4, 7, 10 and 14 days of ApoA-1 mimetic peptide or saline control treatments. Studies were carried out with an S12 probe using a standard echocardiographic system (Sonos 5500, Philips Medical Imaging, MA). Intra-muscular injections of ketamine (45 mg/kg) and midazolam (0.75 mg/kg) were used for sedation.
Parasternal long and short-axis views of the aortic valve were recorded to assess leaflet morphology. Left ventricular outflow tract (LVOT) diameter was measured in a zoomed parasternal long-axis view, and LVOT cross-sectional area (CSALVOT) was calculated according to: CSALVOT=π(DLVOT/2)^2. LVOT velocity (V1) and velocity time integral (VTILVOT) were obtained with pulsed-wave Doppler sampled proximal to the aortic valve in the apical 5-chamber view. Continuous wave (CW) Doppler interrogation across the aortic valve was used to obtain transvalvular maximal velocity (V2) and VTI (VTIAO) in the same view. V1/V2 ratio was calculated in the pre-treatment period to determine AVS development. Aortic valve area (AVA) was obtained at each time point by the continuity equation: AVA=CSALVOT×(VTILVOT/[…]). Aortic valve thickness in its middle portion was measured at end-diastole in a zoomed parasternal long-axis view at baseline, before randomized therapy, and at the final echocardiographic exam.
The average of three consecutive cardiac cycles was used for each measurement. Special care was taken to obtain similar imaging planes on serial examinations by reviewing previous recordings before follow-up study. All echocardiographic imaging and measurements were performed throughout the protocol by the same experienced investigator blinded to randomized treatment assignment.
Data are presented as mean±standard deviation. For the “pre-treatment” period, repeated measures analysis of variance (ANOVA) models were used to study the echocardiographic and serum measurements across time and between groups (treated vs. control groups). Models with time, group and group×time interaction as independent variables were used and comparisons between groups at a given time point were undertaken only in the presence of a significant group×time interaction. Otherwise, global conclusions were drawn based on the main group effects of the model. […]

aortic valve lesions [4] = assay: Histochemistry of aortic valves (von Kossa, filipin, Sirius red, immunohistochemistry) in rabbit model of aortic valve stenosis
Excerpt: An animal model adapted from that described by Drolet et al. (12) was used. Fifteen male New-Zealand White rabbits (2.7-3.0 kg, aged 12-13 weeks) were fed with a 0.5% cholesterol-enriched diet (Harlan, Indianapolis, Ind.) plus vitamin D2 (50000 UI per day; Sigma, Markham, Canada) in the drinking water until significant AVS, as defined by a decrease ≧10% of aortic valve area (AVA) or of the transvalvular velocities ratio (V1/V2), could be detected by echocardiography (12.9±2.4 weeks). The animals then returned to a standard diet (without vitamin D2) to mimic cholesterol lowering and were randomly assigned to receive either saline (control group, n=8) or the ApoA-1 mimetic peptide (treated group, n=7). Rabbits were given injections through the marginal ear vein of saline or of the ApoA-1 mimetic peptide (25 mg/kg) complexed with phospholipids (Compound A), 3 times per week for 2 weeks. Echocardiograms were performed serially (see Echocardiography Methods) every 3 to 4 days throughout the randomized treatment period. Two days after their last infusion, the animals underwent a final echocardiogram and were sacrificed, and the aortic valves were harvested for histological analyses. Blood samples were obtained through the ear artery at baseline, prior to treatment and before sacrifice. Total cholesterol, HDL cholesterol, triglycerides and calcium levels were measured with an automated filter photometer system (Dimension RxL Max, Dade Behring, Ill.). Hematoxylin-phloxin-safran, von Kossa and Sirius red (F3B, BDH, UK) stained sections were prepared for routine examination, tissue calcification and collagen studies respectively. Collagen fibers types I and III were quantified as previously described (13), on Sirius red picric acid stained sections under polarized light. For immunohistochemistry evaluation, all sections were preincubated with either mouse IgG2a monoclonal antibody against rabbit macrophage (RAM11, Dako, Canada) (1:100 dilution) or rabbit smooth muscle cell α-actin (Clone 1A4, Dako, Canada) (1:200 dilution). Species-appropriate biotinylated secondary antibodies were applied, followed by streptavidin horseradish peroxidase complex, visualized with azoethylcarbazol (AEC) and counterstained by Mayer's hematoxylin. Smooth muscle cells, macrophages and calcification areas were quantified in the ROA on digital images acquired at 40× magnification. Images from each section were digitally captured with the same illumination settings, and automatic computer-based analysis was performed with the same color threshold for all specimens. Data were expressed as percent labelled area in ROA. For assessment of tissue free cholesterol, 5 μm cryosections fixed in 4% paraformaldehyde in PBS (pH 7.4) were stained with filipin (13). Sections were incubated for 1 hour at room temperature in filipin complex (Sigma, Canada) dissolved in DMSO and diluted in PBS, mounted in Vectashield (Vector Laboratories, USA) and viewed by fluorescence microscopy using a Zeiss Axiovert 200M microscope with the DAPI filter set. Images were acquired with an AxioCam MRm digital camera mounted with a 0.63× C-mount adapter. Filipin data were expressed as arbitrary units of fluorescence intensity. Data are presented as mean±standard deviation. For the “pre-treatment” period, repeated measures analysis of variance (ANOVA) models were used to study the echocardiographic and serum measurements across time and between groups (treated vs. control groups). Models with time, group and group×time interaction as independent variables were used and comparisons between groups at a given time point were undertaken only in the presence of a significant group×time interaction. Otherwise, global conclusions were drawn based on the main group effects of the model. […]

[5] = at the time of randomization (pre-treatment value)
[6] = treated group, after 7 days of treatment
[7] = treated group, after 10 days of treatment
[8] = treated group, after 14 days of treatment
[9] = treated rabbits, Sirius red, polarized light

For “H-Pro-Val-Leu-Asp-Leu-Phe-Arg-Glu-Leu-Leu-Asn-Glu-Leu-Leu-Glu-Ala-Leu-Lys-Gln-Lys-Leu-Lys-OH (H-PVLDLFRELLNELLEALKQKLK-OH; not fully specified) [ApoA-1 mimetic peptide, ApoA-1 mimetic peptide complexed with phospholipids, mimicking nascent HDL]”, the “% LLL (percentage of total leaflet length occupied by lesion)” value (aortic valve lesions [1]) was 55.7±24.3%, the “Lesion extent at the base of valve leaflets and sinuses of Valsalva” value (aortic valve lesions [1]) was 52.8±12.5% and the “percentage of lesion area (LA) per region of analysis (ROA)” value (aortic valve lesions [1]) was 52.8±12.5 %/ROA. It also gave an HDL-cholesterol ([2]; at end of treatment) of 0.45 ± 0.17 mmol/L, a total cholesterol levels ([2]; at end of treatment) of 17.57 ± 10.32 mmol/L and an HDL-cholesterol [2, 5] of 0.50 ± 0.15 mmol/L. For the same substance, the total cholesterol levels [2, 5] was 20.13 ± 5.18 mmol/L, the triglyceride levels ([2]; treated vs. control group during treatment period, P=0.544) was “similar” and the “Aortic valve area (AVA)” value [3, 6] was 21.9±3.6 mm^2. For the same substance, the “Aortic valve area (AVA)” value [3, 7] was 23.0±4.1 mm^2, the “Aortic valve area (AVA)” value [3, 8] was 23.8±3.1 mm^2 and the “relative increase of AVA” value [3, 6] was 14.2±3.5% and 14.2%. The “relative increase of AVA” value [3, 7] was 19.8±3.5% and 19.8%, the “relative increase of AVA” value [3, 8] was 24.6±2.0% and 24% and 24.6% and the “decrease of aortic valve thickness” value ([3]; treated group, within 14 days of treatment) was 21%. For the same substance, the Aortic valve thickness ([3]; at end of treatment (14 days)) was 0.075±0.033 cm, the Aortic valve thickness ([3]; before randomization (pre-treatment value)) was 0.094±0.034 cm and the “decrease in free cholesterol compared to controls” value (aortic valve lesions [4]; treated animals vs. controls, first 10 μm at luminal edge of lesions, not statistically significant, P=0.231) was 41%. For the same substance, the “free cholesterol (filipin fluorescent signal)” value (aortic valve lesions [4]; treated animals, within the first 10 μm at the luminal edge of lesions) was 221±54 arbitrary units of fluorescence intensity, the “percentage of rabbits with calcium deposits in the lesion core in the sinuses of Valsalva” value (aortic valve lesions [4]; treated group) was 57% and the “decrease of calcification area compared to controls” value (aortic valve lesions [4]; treated group vs. controls, von Kossa staining, strong trend, P=0.063) was 77%. For the same substance, the “percentage of the sinus of Valsalva area occupied by calcifications” value (aortic valve lesions [4]; treated group, von Kossa staining) was 1.6±2.0%, the “percentage of collagen type I fibers in the ROA” value (aortic valve lesions [4]; [9]) was 5.5±5.6 %/ROA and the “percentage of collagen type III fibers in the ROA” value (aortic valve lesions [4]; [9]) was 19.1±11.3 %/ROA. The macrophage areas (aortic valve lesions [4]; treated vs. control group, RAM11 immunohistochemistry) was “no significant differences between groups” and the α-actin positive areas (aortic valve lesions [4]; treated vs. control group, smooth muscle cell α-actin immunohistochemistry) was “no significant differences between groups”.
